# Where “and” joins values, the source holds several entries; their conditions need not be identical. Identical values can stand only once. Marks after values point to notes of the source that are not given here.
# Test system: Bcap-37 human breast cancer
# Experiment: Bcap-37 human breast cancer xenograft in nude mice, dosing from day 7 when tumors palpable (Example 5)
# Format: in vivo
# Conditions: for Tumor Inhibition Rate C − T/C %: based on tumor weight; for Tumor Volume (g) X ± SD: end of study
# Experimental: Only female mice were used in this study. […] The high, middle and low doses of ACEA100108 were 50, […] and 8 mg/kg/d, respectively.
# Preparation and Administration of Test Compounds. […] Seven days after the tumor transplantation, the transplanted tumors grew to size sufficiently large that could be felt by hands when one touched the animal. […] The high, middle and low dose of ACEA100108 was 50, 20 and 8 mg/kg, respectively.
# About seven days after the transplantation, tumors in the mice grew sufficiently large so that tumor could be felt by hands when one touched the animals.
# For the human breast cancer xenograft model, all used materials, including animal food, animal cage, supporting materials and apparatus contacted by animals, were high-pressure sterilized. Nude mice were maintained in laminar flow shelves under SPF condition. After tumor transplantation, mouse weight and tumor size in each compound dosage group were dynamically monitored and recorded. The tumors size was determined by measuring the major axis (a) and minor axis (b) of the tumor, and tumor volume was calculated according to the equation (3) in Example 3.
structure (smiles),measurement,setting,value
"Fc1ccc(CSSSCc2ccc(F)cc2)cc1 [ACEA100108, Di(p-fluorobenzyl)trisulfide]",Body weight of mice,"8 mg/kg iv x7 qd, 0 d (beginning)",18.5 g and 18.5 ± 1 g
same,Body weight of mice,"8 mg/kg iv x7 qd, 7 d",19.8 ± 1.5 g
same,Mice with palpable tumor / total mice,"8 mg/kg iv x7 qd, 7 d",6/6††
same,Tumor volume (cm^3),"8 mg/kg iv x7 qd, 7 d after transplantation (start of dosing)",0.01 cm^3
same,Body weight of mice,"8 mg/kg iv x7 qd, 14 d",21.7 ± 1.4 g
same,Tumor volume (cm^3),"8 mg/kg iv x7 qd, 14 d",0.107 ± 0.02 cm^3
same,Body weight of mice,"8 mg/kg iv x7 qd, 21 d",23.2 ± 1.5 g
same,Tumor volume (cm^3),"8 mg/kg iv x7 qd, 21 d",0.27 ± 0.03 cm^3
same,Tumor volume (cm^3),"8 mg/kg iv x7 qd, 24 d",0.962 ± 0.23 cm^3
same,Body weight of mice,"8 mg/kg iv x7 qd, 24 d (end)",24.0 g and 24 ± 1.4 g
same,Tumor Volume Inhibition T/C %,8 mg/kg/d iv x7 qd,53.38%
same,Tumor weight,8 mg/kg/d iv x7 qd,1.12 ± 0.18 g
same,Tumor Inhibition Rate C − T/C %,8 mg/kg/d iv x7 qd,28.21%
same,Tumor Volume (g) X ± SD,8 mg/kg/d iv x7 qd,0.962 ± 0.23*** cm^3
same,Body weight of mice,"20 mg/kg iv x7 qd, 0 d (beginning)",18.8 ± 1.2 g
same,Body weight of mice,"20 mg/kg iv x7 qd, 7 d",19.5 ± 1 g
same,Mice with palpable tumor / total mice,"20 mg/kg iv x7 qd, 7 d",6/6††
same,Tumor volume (cm^3),"20 mg/kg iv x7 qd, 7 d after transplantation (start of dosing)",0.01 cm^3
same,Body weight of mice,"20 mg/kg iv x7 qd, 14 d",21.2 ± 1.5 g
same,Tumor volume (cm^3),"20 mg/kg iv x7 qd, 14 d",0.087 ± 0.01 cm^3
same,Body weight of mice,"20 mg/kg iv x7 qd, 21 d",22.3 ± 1.6 g
same,Tumor volume (cm^3),"20 mg/kg iv x7 qd, 21 d",0.23 ± 0.04 cm^3
same,Tumor volume (cm^3),"20 mg/kg iv x7 qd, 24 d",0.74 ± 0.18 cm^3
same,Body weight of mice,"20 mg/kg iv x7 qd, 24 d (end)",24.3 g and 24.3 ± 0.8 g
same,Tumor Volume Inhibition T/C %,20 mg/kg/d iv x7 qd,41.06%
same,Tumor weight,20 mg/kg/d iv x7 qd,0.822 ± 0.12 g
same,Tumor Inhibition Rate C − T/C %,20 mg/kg/d iv x7 qd,47.31%
same,Tumor Volume (g) X ± SD,20 mg/kg/d iv x7 qd,0.740 ± 0.18*** cm^3
same,Body weight of mice,"50 mg/kg iv x7 qd, 0 d (beginning)",18.2 g and 18.2 ± 1.2 g
same,Body weight of mice,"50 mg/kg iv x7 qd, 7 d",19.3 ± 1 g
same,Mice with palpable tumor / total mice,"50 mg/kg iv x7 qd, 7 d",6/6††
same,Tumor volume (cm^3),"50 mg/kg iv x7 qd, 7 d after transplantation (start of dosing)",0.01 cm^3
same,Body weight of mice,"50 mg/kg iv x7 qd, 14 d",20.7 ± 1.2 g
same,Tumor volume (cm^3),"50 mg/kg iv x7 qd, 14 d",0.049 ± 0.02 cm^3
same,Body weight of mice,"50 mg/kg iv x7 qd, 21 d",21.8 ± 1.5 g
same,Tumor volume (cm^3),"50 mg/kg iv x7 qd, 21 d",0.169 ± 0.03 cm^3
same,Tumor volume (cm^3),"50 mg/kg iv x7 qd, 24 d",0.485 ± 0.06 cm^3
same,Body weight of mice,"50 mg/kg iv x7 qd, 24 d (end)",22.8 g and 22.8 ± 1.5 g
same,Body weight of mice,"50 mg/kg iv x10 qd, 0 d (beginning)",18.8 g and 18.8 ± 1 g
same,Body weight of mice,"50 mg/kg iv x10 qd, 7 d",19.7 ± 1 g
same,Mice with palpable tumor / total mice,"50 mg/kg iv x10 qd, 7 d",6/6††
same,Tumor volume (cm^3),"50 mg/kg iv x10 qd, 7 d after transplantation (start of dosing)",0.01 cm^3
same,Body weight of mice,"50 mg/kg iv x10 qd, 14 d",20.3 ± 1.4 g
same,Tumor volume (cm^3),"50 mg/kg iv x10 qd, 14 d",0.048 ± 0.03 cm^3
same,Body weight of mice,"50 mg/kg iv x10 qd, 21 d",21.5 ± 1.8 g
same,Tumor volume (cm^3),"50 mg/kg iv x10 qd, 21 d",0.114 ± 0.02 cm^3
same,Tumor volume (cm^3),"50 mg/kg iv x10 qd, 24 d",0.28 ± 0.04 cm^3
same,Body weight of mice,"50 mg/kg iv x10 qd, 24 d (end)",21.2 g and 21.2 ± 1.2 g
same,Tumor Volume Inhibition T/C %,50 mg/kg/d iv x7 qd,26.91%
same,Tumor weight,50 mg/kg/d iv x7 qd,0.745 ± 0.10 g
same,Tumor Volume (g) X ± SD,50 mg/kg/d iv x7 qd,0.485 ± 0.06*** cm^3
same,Tumor Volume Inhibition T/C %,50 mg/kg/d iv x10 qd,15.53%
same,Tumor weight,50 mg/kg/d iv x10 qd,0.672 ± 0.10 g
same,Tumor Inhibition Rate C − T/C %,50 mg/kg/d iv x10 qd,56.92%
same,Tumor Volume (g) X ± SD,50 mg/kg/d iv x10 qd,0.280 ± 0.04*** cm^3
"CC(=O)O[C@H]1C(=O)[C@@]2(C)[C@H]([C@H](OC(=O)c3ccccc3)[C@]3(O)C[C@H](OC(=O)[C@H](O)[C@@H](NC(=O)c4ccccc4)c4ccccc4)C(C)=C1C3(C)C)[C@]1(OC(C)=O)CO[C@@H]1C[C@@H]2O [Taxol, paclitaxel, reference compound]",Body weight of mice,"10 mg/kg iv x7 qd, 0 d (beginning)",18.8 g and 18.8 ± 1 g
same,Body weight of mice,"10 mg/kg iv x7 qd, 7 d",20.5 ± 1 g
same,Mice with palpable tumor / total mice,"10 mg/kg iv x7 qd, 7 d",6/6††
same,Tumor volume (cm^3),"10 mg/kg iv x7 qd, 7 d after transplantation (start of dosing)",0.01 cm^3
same,Tumor volume (cm^3),"10 mg/kg iv x7 qd, 14 d",0.103 ± 0.02 cm^3
same,Tumor volume (cm^3),"10 mg/kg iv x7 qd, 21 d",0.283 ± 0.05 cm^3
same,Tumor volume (cm^3),"10 mg/kg iv x7 qd, 24 d",0.799 ± 0.23 cm^3
same,Tumor Volume Inhibition T/C %,10 mg/kg/d iv x7 qd,44.33%
same,Tumor weight,10 mg/kg/d iv x7 qd,0.92 ± 0.07 g
same,Tumor Inhibition Rate C − T/C %,10 mg/kg/d iv x7 qd,41.03%

# — patent US8334316B2, “Substituted organosulfur compounds and methods of using thereof” (ACEA Biosciences, Inc., priority 2004, dated 2012)
